Laboratory results: ChEMBL document CHEMBL2417420, “Autotaxin inhibition: development and application of computational tools to identify site-selective lead compounds” (Bioorg Med Chem, 2013)

Target: Autotaxin (Homo sapiens, UniProt Q13822)
Assay: Inhibition of C-terminal FLAG-tagged human recombinant autotaxin using synthetic substrate FS-3 at 10 uM measured every 2 mins by FRET assay relative to control

SMILES: COc1ccc(CCn2c(C(C)Oc3ccccc3)nc3cc(C(=O)NCCOCCO)ccc32)cc1OC (stereo not drawn)
- inhibition: 20%

SMILES: CC(C)c1ccc(S(=O)(=O)N2CCn3nc(C4CCC(CNC(=O)c5ccco5)CC4)cc32)cc1 (stereo not drawn)
- inhibition: 20%

SMILES: COc1cc(/C=N/NC(=O)c2ccc(CN3C(=O)c4cccc5cccc3c45)cc2)cc(Br)c1O
- inhibition: 10%

SMILES: COc1cc(C2CC(=O)NC(SCc3ccccc3)=C2C#N)ccc1O (stereo not drawn)
- inhibition: 30%

SMILES: CCCCCCOC(=O)Oc1ccc(/C=N/c2ccc(OCC)cc2)cc1
- inhibition: 0%

SMILES: COC(=O)c1ccc(/C=C2/Sc3ccccc3N(Cc3ccccc3F)C2=O)cc1
- inhibition: 20%

SMILES: Cc1cc(C)cc(CC(=O)N2CCCN(c3ccc(C(=O)NC(C(N)=O)C(C)O)cn3)CC2)c1 (stereo not drawn)
- inhibition: 10%

SMILES: O=C(O)[C@@H](Cc1ccc(O)cc1)/N=C1\S/C(=C\c2ccc(-c3cccc(Cl)c3)o2)C(=O)N1c1ccccc1
- inhibition: 30%

SMILES: CC(C)c1ccc(OCC(=O)N2CCC(CCCC3CCN(c4ccc(C(=O)N5CCCC5C(N)=O)cn4)CC3)CC2)cc1 (stereo not drawn)
- inhibition: 0%

SMILES: O=C1c2ccccc2-c2ccc(S(=O)(=O)Nc3ccc(S(=O)(=O)Nc4nccs4)cc3)cc21
- inhibition: 10%

SMILES: O=C(O)c1cc(-c2ccc(/C=C3/SC(=S)N(CCc4ccccc4)C3=O)o2)ccc1Cl
- inhibition: 20%

SMILES: COc1ccc(CCn2c(COc3ccccc3)nc3cc(C(=O)NCC(O)CO)ccc32)cc1OC (stereo not drawn)
- inhibition: 10%

SMILES: COc1cc(/C=C2/SC(=S)N(C3CCCCC3)C2=O)ccc1OCc1ccccc1Cl
- inhibition: 0%

SMILES: Cc1cc2cc(C#N)c(SCC(=O)Nc3ccc(N(C)C)cc3)nc2cc1C
- inhibition: 0%

SMILES: O=C(NCCOCCO)c1ccc2c(c1)nc(CN1CCC(N3CCCC3)CC1)n2CC1CC1
- inhibition: 10%

SMILES: COc1cc(C2CC(=O)NC(SCC(N)=O)=C2C#N)ccc1O (stereo not drawn)
- inhibition: 0%

SMILES: CC[C@@H]1CN2CCc3cc(OC)c(OC)cc3[C@@H]2C[C@@H]1C[C@@H]1c2cc(OC)c(OC)cc2CCN1C(=O)COCC(=O)N1CCc2cc(OC)c(OC)cc2[C@@H]1C[C@H]1C[C@H]2c3cc(OC)c(OC)cc3CCN2C[C@@H]1CC
- inhibition: 0%

SMILES: CCOc1cc(/C=C2/NC(=O)N(Cc3cccc(F)c3)C2=O)cc(Cl)c1OCC
- inhibition: 10%

SMILES: CC(=O)C1=C(C)NC(SCC(=O)Nc2ccc(Br)cc2)=C(C#N)C1c1ccc(O)cc1 (stereo not drawn)
- inhibition: 30%

SMILES: CS(=O)(=O)N1CCC(N(C(=O)COc2ccccc2)C2CCC2)CC1c1cccc(F)c1 (stereo not drawn)
- inhibition: 30%

SMILES: CCCOC(=O)c1ccc(/N=C/c2cccc(OC)c2O)cc1
- inhibition: 10%

SMILES: COc1cccc(CC(=O)NCCNc2nc3cc4c(cc3cc2C#N)OCO4)c1
- inhibition: 20%

SMILES: CC(=O)N1c2ccc(NC(=O)c3ccc(Cl)cc3Cl)cc2C2(c3ccccc3)N(C(C)=O)c3ccc(NC(=O)c4ccc(Cl)cc4Cl)cc3C12c1ccccc1 (stereo not drawn)
- inhibition: 10%

SMILES: CC1CCC(C(C)C)C(OCc2nc3cc(C(=O)NCCOCCO)ccc3n2Cc2ccco2)C1 (stereo not drawn)
- inhibition: 10%

SMILES: CC(CNC(=O)CCCn1ncn2c(cc3occc32)c1=O)c1ccccc1 (stereo not drawn)
- inhibition: 10%

SMILES: Cc1ccc(C(=O)Nc2ccccc2C(=O)O)cc1S(=O)(=O)Nc1ccc(Br)cc1
- inhibition: 0%

SMILES: COc1cc(CCNC(=O)c2ccc3c(c2)nc(-c2cc(OC)c(OC)c(OC)c2)n3CCc2ccc(OC)c(OC)c2)cc(OC)c1
- inhibition: 30%

SMILES: COc1cccc(CNC2CC(=O)N(c3ccc(N4C(=O)CC(NCc5cccc(OC)c5OC)C4=O)cc3)C2=O)c1OC (stereo not drawn)
- inhibition: 10%

SMILES: COc1cc([C@@H]2C(C(=O)c3cccs3)=C(O)C(=O)N2CCc2ccccc2)cc(Br)c1O
- inhibition: 20%

SMILES: CC1CCC(OCC(=O)N2CCN(c3ncccc3C(=O)N3CCCC3C(N)=O)CC2)C(C(C)C)C1 (stereo not drawn)
- inhibition: 20%

SMILES: O=C(NCC(O)CO)c1ccc2c(c1)nc(CN1CCC(CCO)CC1)n2CCc1ccccc1 (stereo not drawn)
- inhibition: 10%

SMILES: Cc1cccc(S(=O)(=O)N2CCn3nc(C4CCC(CNC(=O)CC(C)C)CC4)cc32)c1 (stereo not drawn)
- inhibition: 20%

SMILES: CC(CC(=O)N1CCCN(c2ccc(C(=O)NC(C(N)=O)C(C)O)cn2)CC1)c1ccccc1 (stereo not drawn)
- inhibition: 0%

SMILES: Cc1ccc(-c2ccc(-c3nnc(CCCC(=O)NC(CO)CO)o3)cc2)cc1
- inhibition: 10%

SMILES: COc1cc(C(=O)NCCNc2nc3cc4c(cc3cc2C#N)OCO4)cc(OC)c1OC
- inhibition: 10%

SMILES: CCN(C(=O)c1ccc(/C=C2\S/C(=N\c3ccccc3)N([C@H](C)C(=O)O)C2=O)cc1)c1ccccc1
- inhibition: 20%

SMILES: O=C1/C(=C/c2cccc(Oc3ccccc3)c2)SC(=S)N1Cc1ccccc1
- inhibition: 20%

SMILES: CCOc1cc(/C=C2/S/C(=N/c3ccccc3)N(c3ccccc3)C2=O)ccc1OCc1ccccc1
- inhibition: 10%

SMILES: CCOc1cc(CC2SC(N3CCN(C4=NC(=O)C(Cc5ccc(O)c(OCC)c5)S4)CC3)=NC2=O)ccc1O (stereo not drawn)
- inhibition: 30%

SMILES: Cc1ccc2[nH]c3nc(SCC(=O)NCc4ccc5c(c4)OCO5)nnc3c2c1
- inhibition: 10%

SMILES: NC(=O)C(Cc1ccc(O)cc1)NC(=O)c1ccc(N2CCN(C(=O)C(N)Cc3ccccc3)CC2)nc1 (stereo not drawn)
- inhibition: 10%

SMILES: Cc1ccccc1C(=O)NCC1CCC(c2cc3n(n2)CCN3C(=O)COc2ccccc2)CC1 (stereo not drawn)
- inhibition: 30%

SMILES: COc1cc(CCNC(=O)c2ccc3c(c2)nc(-c2cccc(C)c2)n3CCc2ccc(OC)c(OC)c2)cc(OC)c1
- inhibition: 30%

SMILES: COc1ccc(CCn2c(-c3cc(OC)c(OC)c(OC)c3)nc3cc(C(=O)NCCOCCO)ccc32)cc1OC
- inhibition: 20%

SMILES: CCCCCOc1ccc(/C=N/c2ccc(/N=C/c3ccc(OCCCCC)cc3)c(Cl)c2)cc1
- inhibition: 0%

SMILES: COc1cc(/C=C2/SC(=S)N(Cc3ccccc3)C2=O)ccc1OC(=O)c1cccs1
- inhibition: 0%

SMILES: CCOC(=O)C(=O)NCC1CCC(c2cc3n(n2)CCN3S(=O)(=O)c2cccc(Cl)c2)CC1 (stereo not drawn)
- inhibition: 20%

SMILES: CCCCOc1ccc(-c2nc3cc(C(=O)NCc4ccc(C(F)(F)F)cc4)ccc3n2CCc2ccc(OC)c(OC)c2)cc1
- inhibition: 30%

SMILES: CCCCS(=O)(=O)N1CCn2nc(C3CCC(CNS(=O)(=O)c4ccccc4C)CC3)cc21 (stereo not drawn)
- inhibition: 30%

SMILES: COc1cc(/C=N/NC(=O)c2cc(-c3ccc4ccccc4c3)n[nH]2)ccc1O
- inhibition: 10%

SMILES: COc1cc(/C=c2/sc3n(c2=O)NC2(c4ccccc4)N(C)C(=O)N(C)C2(c2ccccc2)N=3)ccc1O (stereo not drawn)
- inhibition: 20%

SMILES: COc1cccc(CNS(=O)(=O)c2ccc3c(c2)NC(=O)C(C)N3C(=O)CN2CCN(c3ccccn3)CC2)c1OC (stereo not drawn)
- inhibition: 10%

SMILES: O=C(Cc1ccccc1OC(=O)Cn1c(=O)sc2ccccc21)Cn1c(=O)sc2ccccc21
- inhibition: 0%

SMILES: COc1ccc(-c2cc(C(=O)NC(C)(C)C(=O)NCCC3CCCN3C)c3ccccc3n2)cc1 (stereo not drawn)
- inhibition: 10%

SMILES: COc1ccc(CCn2c(CCc3ccccc3)nc3cc(C(=O)NCCOCCO)ccc32)cc1OC
- inhibition: 10%

SMILES: COc1ccc(C2CC(=O)NC(SCC(=O)Nc3ccc(I)cc3)=C2C#N)cc1OC (stereo not drawn)
- inhibition: 20%

SMILES: COCCOCC(=O)N1CCN(c2ccc(C(=O)NC(C(N)=O)C(C)O)cn2)CC1C (stereo not drawn)
- inhibition: 20%

SMILES: O=C(O)CN1C(=O)/C(=C/c2ccc(-c3ccc(Cl)cc3)o2)S/C1=N\c1ccccc1
- inhibition: 20%

SMILES: O=C1/C(=C\c2cccc(OCc3ccccc3F)c2)SC(=S)N1Cc1ccccc1
- inhibition: 10%

SMILES: COc1ccc(-c2nc3cc(C(=O)NCCOCCO)ccc3n2CCc2ccc(OC)c(OC)c2)c(OC)c1
- inhibition: 10%

SMILES: CCc1nc2ccc(C(=O)N3CCN(C(C)=O)CC3)cn2c1N(C)C(=O)COc1ccccc1
- inhibition: 0%

SMILES: Cc1cc(C)cc(CC(=O)N2CCN(c3ncccc3C(=O)NC(C(N)=O)C(C)O)CC2)c1 (stereo not drawn)
- inhibition: 0%

SMILES: CCn1c2ccccc2c2cc(/C=C3\SC(=S)N([C@H](Cc4ccccc4)C(=O)O)C3=O)ccc21
- inhibition: 0%

SMILES: COc1ccccc1/C=C1\SC(=O)N(CCC(=O)N2c3ccccc3Sc3ccc(Cl)cc32)C1=O
- inhibition: 30%

SMILES: CC(C)C(=O)NC(Cc1ccc(OCc2ccccc2)cc1)C(=O)NCCCN(C)c1ccccc1 (stereo not drawn)
- inhibition: 30%

SMILES: O=C(Cn1c(=O)sc2ccccc21)OCc1cccc(Oc2ccccc2)c1
- inhibition: 0%

SMILES: CC(c1cc2ccccc2o1)N1CCN(C(=O)CCSc2ccc3ccccc3c2)CC1 (stereo not drawn)
- inhibition: 20%

SMILES: O=C(N/N=C/c1cc(Br)c(O)c(O)c1Br)/C(=C\c1ccc([N+](=O)[O-])cc1)NC(=O)c1ccccc1
- inhibition: 20%

SMILES: N#CC1CCCC(NC(=O)c2cccc(S(=O)(=O)Nc3ccc(Br)cc3)c2)C1 (stereo not drawn)
- inhibition: 0%

SMILES: COc1cc(CCNC(=O)c2ccc3c(c2)nc(-c2ccccc2)n3CCc2ccc(OC)c(OC)c2)cc(OC)c1
- inhibition: 20%

SMILES: COc1ccc(OC)c(C(=O)NC(CC(=O)NCCc2c[nH]c3ccccc23)c2ccccc2)c1 (stereo not drawn)
- inhibition: 20%

SMILES: CC(=O)CCC(=O)N1CCN(c2ccc(C(=O)NC(C(N)=O)C(C)O)cn2)CC1C (stereo not drawn)
- inhibition: 10%

SMILES: CC(O)C(NC(=O)c1ccc(N2CCCN(C(=O)CCC(=O)c3ccccc3)CC2)nc1)C(N)=O (stereo not drawn)
- inhibition: 20%

SMILES: COc1cccc(Cc2nc3cc(C(=O)NCC(O)CO)ccc3n2CCc2ccccc2F)c1 (stereo not drawn)
- inhibition: 10%

SMILES: CCCCCCCCCCCCCCCCS(=O)(=O)c1ccc(S(=O)(=O)N/N=c2\sc3ccc(S(=O)(=O)O)cc3n2C)cc1C(=O)O
- inhibition: 20%

SMILES: O=C1/C(=C\c2cc(Cc3ccccc3)ccc2O)SC(=S)N1Cc1ccccc1
- inhibition: 10%

SMILES: Cn1cc(S(=O)(=O)N2CCc3ccccc32)cc1C(=O)N1CCC(Cc2ccccc2)CC1
- inhibition: 30%

SMILES: COc1ccc(C2CC(=O)NC(SCC(=O)Nc3ccc(I)cc3)=C2C#N)cc1 (stereo not drawn)
- inhibition: 20%

SMILES: O=C(COc1cc(Cl)c(Cl)cc1Cl)Nc1ccc(CNC(=O)c2cnc3cc(C(F)(F)F)ccc3c2O)cc1
- inhibition: 10%

SMILES: CC(C)Cc1ccc(C(C)C(=O)N2CCN(c3ncccc3C(=O)NC(C(N)=O)C(C)O)CC2)cc1 (stereo not drawn)
- inhibition: 20%

SMILES: N#CC1=C(SCC(=O)Nc2ccc(Br)cc2)NC(=O)CC1c1ccc(O)cc1 (stereo not drawn)
- inhibition: 10%

SMILES: O=C1/C(=C\c2ccc(OCc3cccc4ccccc34)cc2)SC(=S)N1c1cccc(F)c1
- inhibition: 10%

SMILES: CCc1nc2ccc(C(=O)NCCc3c[nH]c4ccccc34)cn2c1N(C)C(=O)C1CCCCC1
- inhibition: 0%

SMILES: COc1cc(CCNC(=O)c2ccc3c(c2)nc(-c2cc(OC)cc(OC)c2)n3CCc2ccc(OC)c(OC)c2)cc(OC)c1
- inhibition: 30%

SMILES: CC(=O)N1CCc2cc(NC(=O)c3ccc4nc(C)c(N(C)C(=O)CCc5ccccc5)n4c3)ccc21
- inhibition: 20%

SMILES: CCCCCCOc1ccc(/C=N/c2ccc(-c3ccc(/N=C/c4ccc(OCCCCCC)c(OC)c4)cc3)cc2)cc1CC
- inhibition: 79.1%

SMILES: CC(CC(=O)NCCc1ccncc1)NC(=O)c1cc(-c2ccccc2)nc2ccccc12 (stereo not drawn)
- inhibition: 20%

SMILES: C=CCOC(=O)C1=C(C)NC(SCC(=O)Nc2cccc(Cl)c2)=C(C#N)C1c1ccc(O)c(OC)c1 (stereo not drawn)
- inhibition: 30%
